Measured values taken from patent US20190307740A1, “COMPOSITIONS AND METHODS FOR TREATMENT RELATED TO FALL AND FALL FREQUENCY IN NEURODEGENERATIVE DISEASES” (Neurocea, LLC, priority 2016, published 2019).
Like-named read-outs stand apart in the source and are kept apart here.

Key:
[1] = tested on: rats with a unilateral 6-hydroxydopamine lesion; assay: LIDs in rats with a unilateral 6-hydroxydopamine lesion; type: in vivo; conditions: parkinsonian rat model of LIDs
nAChR = conditions: cited from earlier work
[2] = cited from earlier work; for absorption: oral / gastrointestinal tract
[3] = tested on: subjects with idiopathic PD with LIDs; conditions: for Study discontinuation, primary reason adverse event, n (%): 35 randomized
Description: (§1) At the time the study was performed (2009), there was no FDA accepted instrument for measuring treatment efficacy for LIDs. Therefore, several secondary objectives were utilized to assess efficacy including the Unified Dyskinesia Rating Scale (UDysRS).
A total of 65 male and female subjects with idiopathic PD with LIDs were randomized in the study. The study consisted of 4 phases (FIG. 6A): screening phase (up to 3 weeks), double-blind treatment phase (10 weeks), taper phase (2 weeks), and follow-up phase (2 weeks). The approximate duration of the study for each subject was 17 weeks. […] During the double-blind treatment phase, dosing was begun at Visit 0 at 1 mg every 6 hours (total daily dose [TDD]=4 mg/day) and escalated upwards at 2-week intervals as follows: 2 mg every 6 hours (TDD=8 mg/day) at Visit 1 (Week 2); 4 mg every 6 hours (TDD=16 mg/day) at Visit 2 (Week 4); 6 mg every 6 hours (TDD=24 mg/day) at Visit 3 (Week 6). Subjects were maintained on 24 mg/day for 4 weeks. The subsequent taper phase (2 weeks total), beginning at Visit 4 (Week 10), consisted of 9 days of drug taper and 5 days off drug prior to Visit 5 (final safety visit). […] Ondansetron was provided by the sponsor and dispensed with each dose escalation step with instructions to use it for nausea and vomiting only during the first 4 days following dose initiation or escalation. […] No other dose down-titration was allowed.
(§2) Efficacy was measured with the Unified Dyskinesia Rating Scale (UDysRS), a semi-quantitative assessment, FDA-validated instrument to assess […] dyskinesia in PD. […] Dosing was begun at 1 mg every 6 hours to a final dose of 24 mg per day. Patients who tolerated a total daily dose of at least 16 mg per day continued in the study.
Subjects were maintained on 24 mg/day for 4 weeks. The subsequent taper phase (2 weeks total), beginning at visit 4 (Week 10), consisted of 9 days of drug taper and 5 days off drug prior to Visit 5 (final safety visit). […] No other down-titration was allowed.
(§3) LIDs were assessed by the UDysRS, the main measure of LIDs (Table 12). […] The study was conducted in accordance with the Declaration of Helsinki and Good Clinical Practice Guidelines. All sites received approval from an institutional review board and written informed consent was obtained from each patient prior to participation.

[4] = tested on: subjects with idiopathic PD with LIDs
Description: as §1, §2, §3
(§4) The efficacy variables for LIDs were the mean change from baseline to week 10 in the UDysRS total score; UDysRS sub-scores (Table 12). An analysis of covariance (ANCOVA) combined features of regression and analysis of variance (ANOVA). In addition to the descriptive summary of each variable from baseline to endpoint, Least Square (LS) means standard errors and 95% Confidence intervals (CI) of each group, and the difference of LS means between the 2 treatment groups and its 95% CI are presented. A similar analysis was applied to comparisons between UPDRS Part II, UPDRS Part III.

[5] = tested on: subjects with idiopathic PD with LIDs; conditions: during the 10-week study
Excerpt: The original UPDRS scale was used. […] In the UPDRS Part II, Question 13 is on Falling unrelated to Freezing. […] In Part II, Question 14 is on Freezing when Walking. This is a 5-point item and has two variables freezing and falls. […] Questions 13 and 14 were compared separately (Table 11).
as §4

[6] = tested on: subjects with idiopathic PD with LIDs; conditions: Visit 4 (Week 10)
Description: as §1

all nAChRs = conditions: cited from earlier work
[7] = Phase 2 data used for sample size

c1cncc(OC[C@@H]2CCN2)c1 [A-85380]
effect on LIDs [1]: reduced LIDs to varying extents

Cc1ncccc1OC[C@@H]1CCCN1 [ABT-089]
Type of agonist (nAChR): Partial

c1cc2cc(-c3ccc(O[C@H]4CN5CCC4CC5)nn3)ccc2[nH]1 [ABT-107]
Type of agonist (nAChR): Full

Clc1cc(N2C[C@@H]3CN[C@@H]3C2)cnc1Cl [ABT-894]
Type of agonist (nAChR): Full

Cc1ccc(-c2ccc(OC3CN4CCC3CC4)cn2)cc1 (centres unmarked) [AQW051]
Type of agonist (nAChR): Partial

O=C(c1ccc(Cl)o1)N1CC2CNCC2C1 (centres unmarked) [AZD1446]
Type of agonist (nAChR): Full

CN1CCC[C@H]1c1cccnc1 [Nicotine, (S)-3-[1-methylpyrrolidin-2-yl]pyridine, reference compound]
first-pass metabolism ([2]; in vivo): extensively metabolized into cotinine
half-life ([2]; in vivo): very short half-life
absorption [2]: well-absorbed in the gastrointestinal tract
absorption ([2]; listed as nicotine): rapidly absorbed
efficacy over time (rats and mice; in vivo): no decline in its efficacy over time
effect on LIDs (rats and mice; oral application, injection, slow-release minipumps): reduced LIDs
Type of agonist (nAChR): Full
nAChR subtype (nAChR): All
Study discontinuation, primary reason adverse event, n (%) [3]: 6 n (%)
Study discontinuation, primary reason adverse event, n (%) ([3]; listed as nicotine): Six
impulsivity and nicotine withdrawal symptoms ([3]; after taper from 24 mg/day): no issues with impulsivity or withdrawal symptoms
overall safety and tolerability ([3]; oral 4 times/day up to 24 mg/day, 10 weeks): safe and well tolerated
UDysRS part III, Week 10 result: change from baseline, mean [4, 7]: 5.2
UDysRS walking, Week 10 result: change from baseline, mean [4, 7]: 4.4
Gait-subtest of the UDysRS vs placebo ([4]; in vivo): statistically superior to placebo
dyskinesia disability (UDysRS part 3), Walking, LF-ADL and PGI-C responders vs placebo ([4]; in vivo): Statistically significant differences favoring nicotine compared to placebo
worsening of Parkinson symptoms (UPDRS Part III, Hoehn and Yahr) [5]: neither the UPDRS Part III nor the Hoehn and Yahr scales showed any worsening
worsening of Parkinson symptoms (UPDRS Part III, Hoehn and Yahr) ([5]; listed as nicotine): did not cause any worsening of the PD symptoms
PGI-C responders (score of 1, 2, or 3) ([6]; p=0.0048 vs placebo): 21 (77.8%)
LF-ADL responders (>25% reduction from baseline), vs placebo ([6]; p=0.0453): statistically significant difference between treatment groups

CN[C@@H](C)C/C=C/c1cncc(OC)c1 [TC-2696]
effect on LIDs [1]: reduced LIDs to varying extents

c1cnc2cc3c(cc2n1)[C@@H]1CNC[C@H]3C1 [Varenicline]
Type of agonist (nAChR): Partial
nAChR subtype (nAChR): All
effect on LIDs [1]: reduced LIDs to varying extents
Ki (all nAChRs): 0.1 nM

OCCCCC#Cc1cncc(OC[C@@H]2CCN2)c1 [sazetidine]
effect on LIDs [1]: reduced LIDs to varying extents
